Measured values: patent US11767506B2, “In vitro maturation culture medium of immature oocytes and use thereof” (CHINA AGRICULTURAL UNIVERSITY, priority 2017, dated 2023)

Legend:
mouse oocytes = experiment: In vitro maturation of mouse immature oocytes (cumulus oocyte complexes) on mouse granule cells, fertilization and embryo culture; type: cell-based, C57/BL6J mice
Description: The specific culture method was referred to Example 8, and the differences were: instead of the granule cells form patients, granule cells from C57/BL6J mice were used; instead of the oocytes form patients, cumulus oocyte complexes form C57/BL6J mice were used.

[1] = system: human ovary granule cells; experiment: Expression/secretion of EGF-like growth factors (AREG) by granule cells; type: cell-based; conditions: FIG. 1F
Experimental: Correspondingly, our experiments were performed by: under conditions of in vitro culture, simulating the effect of LH, which functions on granule cells to promote the maturation of oocytes in vivo, so as to achieve the goal of promoting the maturation of oocytes and meanwhile, improving the development potential.

[2] = system: oocyte in follicle of mouse; experiment: In vitro follicle culture model, recovery of oocyte meiosis; type: cell-based; conditions: FIG. 2A
human immature oocytes = experiment: In vitro maturation of human immature oocytes on granule cell feeder layer, then ICSI and embryo culture; type: cell-based
Experimental: Microdrop culture of granule cells: the cumulus oocyte complex collected from superovulation of patients were digested with hyaluronidase and then centrifuged to obtain the granule cells; the cells were cultured in the culture solution for in vitro maturation of examples 1˜6 for microdroplet adherent culture respectively. The microdroplets were covered with liquid paraffin. After the granule cells adhered to the wall of the culture dishes, the resultants could be used as the culture medium 1˜6 for in vitro maturation of immature oocytes.
The immature oocytes identified from superovulation of patients were put in the culture medium for in vitro maturation 1 (i.e., the culture medium obtained by using the culture solution for in vitro maturation of Example 1) containing feeder layer cells for microdrop culture. There were 1˜2 oocytes per microdroplet, culture time 20˜25 h, and culture conditions: 37° C., air with 5% CO2 and 6% of O2, and humidity 100%. The development results of the immature oocytes after microdroplet culturing in the culture medium for in vitro maturation 1 were shown in FIG. 1.
Intracytoplasmic sperm injection (ICSI) using the mature oocytes: the immature oocytes were culture in vitro for 20˜25 h, the maturation status was observed. The oocytes reached the metaphase II (MII) were placed under micromanipulator for ICSI injection.
Embryo culture after fertilization: embryo culture medium G-1PLUS™ (Vitrolife, Sweden) was used to make several 50 μL microdroplets in a 35 mm culture dish. Mineral oil was covered on the surface of the droplets. This culture medium was suitable for culturing embryos from fertilized oocyte (0 day) to 8-cell embryo.
Embryo culture medium G-2 PLUS™ (Vitrolife. Sweden) was used to make several 50 μL microdroplets in a 35 mm Petri culture dish. Mineral oil was covered on the surface of the droplets. This culture medium was suitable for culturing embryos from 8-cell stage until blastocyst stage.
The common medium for maturation was M199 culture medium.

Cc1ccc(NC(=O)CCCCCC(=O)Nc2ccccc2N)cc1 [HDACi 4b]
maturation and development ability of mouse oocytes (mouse oocytes; FIG. 2): significantly promotes
oocyte stepping over the first meiosis to metaphase II (MII) (mouse oocytes; FIG. 2C): significantly promotes
cleavage abilities after fertilization (mouse oocytes; FIG. 2D, versus control group): basically the same
ability to develop into an embryo from fertilized GV stage oocytes (mouse oocytes; FIG. 2E): significantly improved
ability to develop into a blastocyst from fertilized treated oocytes (mouse oocytes; FIG. 2F): significantly increased
ability to develop into a blastocyst (blastocyst counting) from fertilized treated GV stage oocytes (mouse oocytes; FIG. 2H): significantly increased
quality of blastocysts (immunofluorescence of OCT4) (mouse oocytes; FIG. 2I): significantly increased
expression of AREG [1]: significantly promotes
recovery of oocyte meiosis in follicle of mouse [2]: significantly promotes
maturation and development of human oocytes from germinal vesicle (GV) stage into metaphase II (MII) stage (human immature oocytes; FIG. 1A): promotes the maturation and development
numbers of 2 pronucleus zygotes (2PN) obtained by ICSI fertilization on MII oocytes (human immature oocytes; FIG. 1B, treated group versus control group): basically the same
cleavage ability of treated oocytes after fertilization (human immature oocytes; FIG. 1C): significantly improved
development ability of embryos (blastocyst counting) (human immature oocytes; FIG. 1E): significantly increased
quality of blastocysts (immunofluorescence of OCT4 and CDX2) (human immature oocytes; FIG. 1G): significantly improved
